Tests used:
[1] = test system: C. parvum; experiment: DNA replication assay (EdU incorporation); assay type: cell-based, Cryptosporidium parvum; conditions: compound at EC90; for DNA Synthesis Assay: Mean % Inhibition of EdU-labeling (normalized to parasite numbers), Average: average of replicates; for DNA Synthesis Assay: Mean % Inhibition of EdU-labeling (normalized to parasite numbers), Replicate 1: single replicate 1; for DNA Synthesis Assay: Mean % Inhibition of EdU-labeling (normalized to parasite numbers), Replicate 2: single replicate 2; for DNA Synthesis Assay: Mean % Inhibition of EdU-labeling (normalized to parasite numbers), Replicate 3: single replicate 3; for DNA Synthesis Assay: Mean % Inhibition of EdU-labeling (normalized to parasite numbers), Replicate 4: single replicate 4; for DNA Synthesis Assay: Mean % Inhibition of EdU-labeling (normalized to parasite numbers), Replicate 5: single replicate 5; for DNA synthesis: yes/no grouping by phenotypic assay result
Description: Following cell invasion, Cryptosporidium trophozoites grow and multiply to give rise to multinucleated type I meronts (Fig. 3a). The thymidine analog 5-ethynyl-2′-deoxyuridine (EdU) is efficiently incorporated into newly synthesized DNA, and can be detected using click chemistry. We used EdU to measure parasite intracellular DNA replication, as a surrogate for the more complex phenotype of intracellular growth and division. The approach for differentially labeling newly synthesized parasite DNA compared to host cell DNA was to take advantage of the fact that C. parvum replicates more quickly than the nearly confluent host cells. Thus, by adding EdU shortly before egress, it was possible to preferentially label replicating parasites (Fig. 3b, c). DNA staining with Hoechst labeled all of the host and parasite DNA, making it challenging to visualize and quantify parasite DNA. A simple DNA stain would also not distinguish pre-existing DNA from newly synthesized DNA (Fig. 3c). In contrast, EdU labeling only occurred with incorporation into newly synthesized DNA. Incorporated EdU was then easily stained for immunofluorescence and labeled parasites were quantified using high-content microscopy and an NIH ImageJ macro (Fig. 3c, DMSO condition). The […] hydroxyurea (10 mM), a known inhibitor of DNA replication, was used as a positive control for assay validation. […] Compounds with activity in this assay cannot be concluded to specifically target DNA replication, which is a complex phenotype.
Confluent HCT-8 cell monolayers in glass bottom plates were infected with C. parvum, and compounds were added at EC90 following invasion. At 9 h post-infection, 10 µM EdU was added, followed by incubation for another 2 h, and then washing, fixing, and staining for microscopy. […] 40 × dry objective (NA = 0.7); scale = 5 µm. Arrows indicate selected parasites with EdU-labeled DNA. d Quantification of EdU incorporation. […] Data are mean and SD of 2–5 biological replicates.
After incubation of cells with EdU for 2 h, cells were washed 3 times with PBS-D-gal and then fixed with PBS containing 4% PFA. Cells were then permeabilized and stained for EdU using the Click-iT® assay kit (Thermo Fisher Scientific, catalog# C10340) as per the manufacturer’s instructions. Cells were then imaged by focusing on parasites (note that the host cell nuclei are in a different focal plane) using a 40 × dry objective (0.7 NA) and EdU, and lectin numbers quantified using ImageJ software and the custom macro in Supplementary Method 1.

[2] = test system: C. parvum; assay type: cell-based, Cryptosporidium parvum; conditions: compound at EC90; for Invasion Assay: Mean % Inhibition (parasites), Average: average of replicates; for Invasion Assay: Mean % Inhibition (parasites), Replicate 1a: single biological replicate 1; for Invasion Assay: Mean % Inhibition (parasites), Replicate 2a: single biological replicate 2; for Sporozoite invasion: yes/no grouping by phenotypic assay result; for Invasion Assay: Mean % Inhibition (parasites), Replicate 3a: single biological replicate 3
Experimental: The first step in infection is host cell invasion, which involves a complex process encompassing oocyst excystation, parasite motility, adhesion, and parasitophorous vacuole formation (Fig. 2a). Our strategy to assay for compounds affecting invasion was simply to expose C. parvum to compounds immediately after triggering excystation and throughout the invasion process, and then enumerate the parasite vacuoles after 3 h, prior to allowing the parasites to replicate (summarized in Fig. 2b).
Fig. 2 Invasion Assay. a Overview of life cycle stage investigated during the invasion assay. Representative TEM images of a C. parvum oocyst and HCT-8 cell shortly after infection (Scale bar = 500 nm). b Schematic of experimental design. […] Each point represents the mean and SD of at least two biological replicates with four technical replicates per experiment.
C. parvum invasion inhibition was measured by modifying the 48 h growth inhibition assay described above. […] In parallel, Iowa strain oocysts were excysted. […] Assay plates were incubated at 37 °C and 5% CO2 for 3 h.

| Structure (SMILES) | DNA Synthesis Assay: Mean % Inhibition of EdU-labeling (normalized to parasite numbers), Average [1] [%] | DNA Synthesis Assay: Mean % Inhibition of EdU-labeling (normalized to parasite numbers), Replicate 1 [1] [%] | DNA Synthesis Assay: Mean % Inhibition of EdU-labeling (normalized to parasite numbers), Replicate 2 [1] [%] | DNA Synthesis Assay: Mean % Inhibition of EdU-labeling (normalized to parasite numbers), Replicate 3 [1] [%] | DNA Synthesis Assay: Mean % Inhibition of EdU-labeling (normalized to parasite numbers), Replicate 4 [1] [%] | DNA Synthesis Assay: Mean % Inhibition of EdU-labeling (normalized to parasite numbers), Replicate 5 [1] [%] | DNA Synthesis Assay: Mean % Inhibition of EdU-labeling (normalized to parasite numbers), Replicate 6 ([1]; single replicate 6) [%] | DNA synthesis [1] | Invasion Assay: Mean % Inhibition (parasites), Average [2] [%] | Invasion Assay: Mean % Inhibition (parasites), Replicate 1a [2] [%] | Invasion Assay: Mean % Inhibition (parasites), Replicate 2a [2] [%] | Sporozoite invasion [2] | Invasion Assay: Mean % Inhibition (parasites), Replicate 3a [2] [%] | Invasion Assay: Mean % Inhibition (parasites), Replicate 4a ([2]; single biological replicate 4) [%] | DNA synthesis (mean % inhibition) ([1]; EdU added 9 h post-infection for 2 h) [%] |
| --- | --- | --- | --- | --- | --- | --- | --- | --- | --- | --- | --- | --- | --- | --- | --- |
| O=c1[nH]c(=O)n([C@H]2C[C@H](O)[C@@H](CO)O2)cc1F [Floxuridine] | 20.42 | 15.13 | 27.54 | -10.47 | 28.26 | 37.17 | 24.87 | no | -28.03 | -30 | -26 | no |  |  |  |
| CN(C)S(=O)(=O)c1ccc(C(=O)N2CCN(c3ccc4nncn4n3)CC2)cc1 [D-44] | 12.07 | 29.16 | 10.90 | -3.84 |  |  |  |  | -11.48 | -25 | -14 |  | 2 | -9 |  |
| Oc1c(C(Nc2ccccn2)c2cccc(Oc3ccccc3)c2)ccc2cccnc12 (centres unmarked) [A-2] | 100.00 | 100 | 100 |  |  |  |  | yes | -15.19 | -13 | -17 | no |  |  | 100.00 |
| C[C@H]1CCC[C@H](C[C@H]2Cc3cc(O)cc(O)c3C(=O)O2)O1 [Cladosporin] | 93.15 | 89.75 | 94.02 | 89.08 | 93.50 | 99.40 |  |  | -6.64 | 5.41 | -19 |  |  |  |  |
| O=C(CC1NCCCC1O)Cn1cnc2cc(Br)c(Cl)cc2c1=O (centres unmarked) [Halofuginone] | 88.20 | 85.31 | 91.09 |  |  |  |  |  | 6.92 | 11 | 2.47 |  |  |  |  |
| O=C(Nc1ccc(Cl)c(Cl)c1)N1CCN(c2ccc3nncn3n2)CC1 [D-28] | 3.38 | 14.86 | -8.10 |  |  |  |  |  | -13.23 | -5 | -22 |  |  |  |  |
| COc1ccc(NC(=O)N2CCCCN3C(CN(C)C)C(c4ccc(C#Cc5ccccc5)cc4)C3C2)cc1 (centres unmarked) [BRD7929] | 93.39 | 85.08 | 95.72 | 99.38 |  |  |  |  | 0.40 | -20 | 20 |  | 1.85 |  |  |
| O=C(NC(c1ccccc1)c1ccc2cccnc2c1O)c1ccccc1 (centres unmarked) [A-5] | 99.95 | 100.00 | 100.00 | 99.80 | 100.00 |  |  | yes | -13.46 | -13 | -14 | no |  |  |  |
| CC(C)c1c(C(=O)Nc2ccccc2)c(-c2ccccc2)c(-c2ccc(F)cc2)n1CC[C@@H](O)C[C@@H](O)CC(=O)O [Atorvastatin] | -4.60 | -2.45 | -19.78 | 8.45 |  |  |  |  | -38.43 | -51 | -26 |  |  |  |  |
| COc1ccc(Nc2nc(NCc3ccccc3Cl)c3ccccc3n2)cc1Cl [B-13] | -3.46 | 5.94 | -6.60 | -9.73 |  |  |  | no | 82.51 | 92 | 73 | yes |  |  |  |
| CCC(C)n1ncn(-c2ccc(N3CCN(c4ccc(OCC5COC(Cn6cncn6)(c6ccc(Cl)cc6Cl)O5)cc4)CC3)cc2)c1=O (centres unmarked) [Itraconazole] | -4.89 | 6.01 | -18.49 | -2.19 |  |  |  |  | -29.72 | -31 | -28 |  |  |  |  |
| c1ccc(CNc2nc(NCc3ccccc3)c3ccccc3n2)cc1 [B-23] | 1.59 | -16.14 | 17.17 | 3.74 |  |  |  | no | 83.80 | 84 | 83 | yes |  |  |  |
| CC(=NOCCN)c1cccc(C(C)(C)NC(=O)Nc2ccc(Cl)c(C(F)(F)F)c2)c1 [P257] | 97.76 | 97.49 | 98.03 |  |  |  |  |  | 9.88 | 4 | 16 |  |  |  |  |
